Results on 1 substance are retold here after patent US6517856B1, “Insecticide resistance assay” (priority 1998, dated 2003).

A value given as a limit tells only on which side of the number the result lay.

Data set [1] concerns Heliothis virescens neonates. Kind of data set: Feeding disruption bioassay on meal pads and diet cylinders (toxin incorporation, diet comparison). Format: in vivo. Conditions: for percentage of the population producing >5 fecal pellets: Hv Washington neonates, 0.04 μg MVP per ml diet, 24 h. Here is the method: Feeding disruption bioassays follow the method Examples 1-9. Bioassay diets contain 20 mg of the dye Trypan Blue (Direct Blue 14; Matheson Coleman and Bell, Norwood, Ohio) per 100 ml of diet. The blue dye serves as a marker of fecal origin, with only larvae feeding on blue diet producing blue feces. All bioassay results were taken from two replicates consisting of 24 insects per replicate. Dead larvae (defined as no movement for 30 s after prodding with a blunt probe) at the assay endpoint (24 h) were discarded and not included in the results in order to avoid interpreting mortality as a non-feeding assay response. Assays were conducted in clear 8-well microtiter plate strips (Nalge Nunc Int., Napersville, Ill.). Strip caps were separated with a scalpel to allow individual removal, facilitating observation of individual wells while not allowing neighboring larvae to escape. A #3 insect pin was used to puncture each cap twice, which permitted ventilation in order to reduce condensation within wells and provide larvae with air.
The original bioassay method was modified by substituting 100 μl meal pads (diameter=6 mm) for fresh diets. Except where noted, toxins were incorporated into the meal pads by hydrating with aqueous solutions containing appropriate concentrations of the B. thuringiensis CryIAc formulation MVP (Mycogen, San Diego, Calif.). Serial MVP dilutions were used in each assay, with dilution series for each replicate of a treatment made on different days. Hydration of 100 μl meal pads was by pipetting two 40 μl aliquots (water volume=80 μl) in order to prevent pads from floating in the wells, as discussed above. Lyophilized diet cylinders (400 μl) were hydrated to original wet weight as previously described with an aqueous MVP dilution, resulting in a final concentration of 0.04 μg MVP per ml diet. After 1 h, cylinders were divided into 3 sections with a scalpel and individual sections were placed in 8-well microtiter strips, 1 section per well. The feeding disruption bioassay was then used to assess the diffusion of MVP through the cylinder using one larva per cylinder section. All bioassay concentrations reported are final diet concentrations, and not those of solutions used to hydrate meal pads.

In another data set the test system is H. zea. Put plainly: Modified feeding disruption bioassay on MVP-hydrated meal pads, field strains. Format: in vivo, Helicoverpa zea. The protocol:
Trypan Blue (Direct Blue 14; Matheson Coleman and Bell, Norwood, Ohio) was blended with artificial diet, 20 mg dye per 100 ml diet. Blue diet aliquots were dispensed (100 μl per well) into 8-well microtiter plate strips (Nalge Nunc Int., Napersville, Ill.). The blue dye served as a marker of feeding on the assay diet, with larvae feeding on colored diet producing blue feces which were easily distinguished visually from feces derived from other food sources. Microtiter plate strips containing blue diet were frozen at −80° C. and lyophilized (Bench Top 6, Virtis, Gardiner, N.Y.; cold trap=−70° C., ˜200 mTorr, ambient temperature=23° C.) for a minimum of 24 h in order to form hydratable meal pads. Meal pads were stored in the dark in sealed plastic bags with desiccant prior to use.
Meal pads were hydrated with aqueous dilutions of the B. thuringiensis CryIAc δ-endotoxin formulation MVP (Mycogen, San Diego, Calif.) at least 1 h prior to the start of assays. Fresh diet aliquots (100 μl) consistently lost 78-84% of their water content by weight during the lyophilization process. Therefore, meal pads were hydrated with 80 μl of MVP in distilled water (treatments) or distilled water only (controls). The insecticide concentrations referenced throughout this paper are in μg MVP per ml of diet, i.e. the final concentration of insecticide in hydrated diet, which is 80% of the concentration of the solution used to hydrate the meal pads. Strip caps (Nunc) were cut into single caps in order to seal wells of the microtiter plate strips individually, which facilitated observation within wells while not allowing neighboring larvae to escape. In order to reduce condensation within the wells and provide larvae with air, caps were punctured twice with a #3 insect pin. Bioassays were conducted at 27±1° C. with a 14:10 (L:D) cycle, and blue fecal pellets were counted at 24 h. Neonates were used in all assays and were exposed to assay diets within 24 h of hatch. The results from each assay are taken from two replicates of each dose, with each replicate consisting of 24 larvae, one larva per well. Control (no dose) treatments were replicated three times. Dead larvae (defined as no movement for 30 s after prodding with a blunt probe) at the assay endpoint (24 h) were discarded and not included in the reported results. For each surviving larva, the number of fecal pellets produced was recorded. Serial dilutions of the MVP formulation were used for meal pad hydration, with separate dilution series prepared for each replicate.
Following 24 h exposure to diet containing a known concentration of MVP (Mycogen), a surviving larva was designated as a ‘feeder’ if it had produced more than two fecal pellets and as a ‘non-feeder’ otherwise. The cut-off value of two fecal pellets was adopted because this provided the clearest separation between species. Probit analyses were applied to the dichotomized fecal pellet counts in order to compare strains, between and within species, with respect to the feeding disruption response. A probit model was then used to relate the proportion of non-feeders to dose (on a log10 scale). Probit curves were fitted separately for each insect strain, and a NFC50 (non-feeding concentration50; log10 of the MVP concentration resulting in 50% non-feeders) and slope was obtained for H. zea. Also, probit curves were compared across species and among strains within species using PROC GENMOD with LINK=PROBIT (SAS 1993) on the data for all strains combined, and fitting effects for species, strains within species, log10 dose, as well as dose by species and dose by strain within species interactions.
Probit estimates of the proportion of feeders at the diagnostic concentration for each strain were used to predict the properties of an assay involving exposure of a small number, n, of larvae in individual wells for 24 h to diet containing a diagnostic concentration of the MVP formulation (final MVP concentration in diet 0.04 μg/ml). […]

For the substance “CryIAc: Bacillus thuringiensis CryIAc δ-endotoxin, commercial formulation MVP (Mycogen), >98.0% δ endotoxin”, the “percentage of the population producing >5 fecal pellets” value in data set [1] (100 μl meal pads) is listed as 10.4%; in data set [1] (400 μl cylinder, bottom section), 6.4%; in data set [1] (400 μl cylinder, middle section), 4.2%; in data set [1] (400 μl cylinder, top section), 6.3%. Moreover, the “stability in diet during the lyophilization process” value in data set [1] (judged by Hv 97 bioassay, 0.04 μg MVP per ml diet incorporated before lyophilization) is “apparently stable”. Besides, the “pr, probability of a larva being a feeder, most conservative probit estimate” value in the data set with H. zea (H. zea strains, diagnostic concentration 0.04 μg/ml, 24 h) is listed as 0.80. The “non-feeding response (0-2 fecal pellets)” value stood at 87.2% in the data set with H. zea (Hz Alachua neonates, 1200 μg MVP per ml diet, 24 h); 100% in the data set on H. zea (Hz Barnwell neonates, 1200 μg MVP per ml diet, 24 h); 100% in the data set with H. zea (Hz Nueces neonates, 1200 μg MVP per ml diet, 24 h). The “feeding response (>2 fecal pellets)” value with H. zea (Hz Alachua, 0.04 μg MVP per ml diet, 24 h) is 100%; in the data set with H. zea (Hz Barnwell, 0.04 μg MVP per ml diet, 24 h), 100%; with H. zea (Hz Washington, 0.04 μg MVP per ml diet, 24 h) it was 80.4%. Also, in the data set on H. zea (Hz Alachua, 1200 μg MVP per ml diet, 24 h), the “percentage of neonates remaining feeders (>2 fecal pellets per larva)” value is listed as 12.8%. The “percentage producing 0-2 fecal pellets over 24 h” value with H. zea (Hz Baldwin neonates, 400 μg MVP per ml diet) is 97.7%; in the data set on H. zea (Hz Harmon neonates, 400 μg MVP per ml diet) it was 89.5%; in the data set on H. zea (Hz Washington neonates, 400 μg MVP per ml diet) it was 97.6%. Further, the “pr, feeding probability” value in the data set with H. zea (Hz Irwin (south Georgia), 0.04 μg MVP per ml diet, 24 h) stood at 0.98. Further, in the data set with H. zea (all H. zea larvae assayed, 1200 μg MVP per ml diet, 24 h), the “percentage of larvae producing >6 fecal pellets” value is less than 1%. Further, in the data set with H. zea (each of Hz Alachua, Hz Barnwell, Hz Baldwin, 0.04 μg MVP per ml diet, 24 h), the “percentage producing >15 fecal pellets” value is on record as greater than 90%. Also, in the data set with H. zea (each of three other H. zea field strains, 400 μg MVP per ml diet, 24 h), the percentage non-feeders result is recorded as “Less than 88.0%”. In the data set with H. zea (three of the six H. zea susceptible field strains, 400 μg MVP per ml hydrated diet), the non-feeding response is recorded as greater than 89%.
